What was measured:
adults with MDD [1] = conditions: responders to first 14-day course of 50 mg who continued beyond Day 28; up to 1 year follow-up; cited from earlier work
adults with MDD [2] = assay: Phase 3 CORAL study: treatment-emergent adverse events (safety set); type: in vivo, human; conditions: 50 mg once daily 14 days co-initiated with ADT
Experimental: This was a randomized, double-blind, parallel-group, placebo-controlled study in adults with MDD. The diagnosis of MDD was made according to Structured Clinical Interview for Diagnostic and Statistical Manual of Mental Disorders, Fifth Edition (DSM-5) Clinical Trial Version (SCID 5-CT) performed by a qualified healthcare professional.
Participants were randomized to receive blinded Compound (1) 50 mg or placebo for administration each evening from Days 1 through 14. In addition, all participants received 1 of 2 classes of ADTs: a selective serotonin reuptake inhibitor (SSRI; sertraline, escitalopram, citalopram) or a serotonin-norepinephrine reuptake inhibitor (SNRI; duloxetine or desvenlafaxine) in an open-label manner from Day 1 through the end of the study. The ADT was administered per labeled prescribing information. The investigator assigned 1 of the 5 ADTs based on clinical standard of care; the participant must not have had been previously treated with the assigned ADT within the current depressive episode and must not have had taken any ADT within 30 days prior to Day 1 (or taken fluoxetine within 60 days prior to Day 1). Randomization was stratified by ADT class (SSRI or SNRI). […]

patients with MDD or PPD = conditions: cited from earlier work
[3] = test system: patients with major depressive disorder (MDD); conditions: TEAEs: nausea/vomiting, diarrhoea, abdominal pain, dyspepsia, anorexia, dry mouth; cited from earlier work

SMILES	patients who received a total of 1 or 2 treatment courses (adults with MDD [1])	tolerability (in words) (adults with MDD [2])	onset of effect on depressive symptoms (patients with MDD or PPD; 50 mg vs placebo, patients with MDD or PPD)	minimally effective dose (patients with MDD or PPD; previous Compound (1) studies in MDD) [mg]	tolerability on the gastrointestinal tract among antidepressants (in words) [3]
C[C@@]1(O)CC[C@H]2[C@H](CC[C@@H]3[C@@H]2CC[C@]2(C)[C@@H](C(=O)Cn4cc(C#N)cn4)CC[C@@H]32)C1 [Compound (1), 1-(2-((3R,5R,8R,9R,10S,13S,14S,17S)-3-hydroxy-3,13-dimethylhexadecahydro-1H-cyclopenta[a]phenanthren-17-yl)-2-oxoethyl)-1H-pyrazole-4-carbonitrile]	approximately 80%	generally-well tolerated	Day 2 or 3	30	
CN(C)CCC[C@@]1(c2ccc(F)cc2)OCc2cc(C#N)ccc21 [escitalopram]					least tolerated
CN[C@H]1CC[C@@H](c2ccc(Cl)c(Cl)c2)c2ccccc21 [sertraline]					least tolerated
